According to paper PMC10606833, “A Comprehensive Study on the Chemical Characterization and Neuroprotective Evaluation of Pracaxi Nuts Extracts Obtained by a Sustainable Approach” (Foods, 2023):

Key:
[1] = ROS scavenging capacity, oxygen radical absorbance capacity (ORAC) assay; assay type: biochemical; details: optimized PLE extracts and reference standard (Table 2)
Procedure: (§1) The ROS scavenging capacity of the PLE extracts obtained from pracaxi nuts cake was measured using the oxygen radical absorbance capacity (ORAC) assay previously described. Ascorbic acid and 10% EtOH (v/v) were used as reference standard and blank control solutions, respectively. Complementary, the RNS scavenging capacity was estimated referring to the nitric oxide (NO) radical scavenging assay. Ascorbic acid was used as the reference standard and 25% EtOH was used as blank control solution. The AChE and BChE inhibitory activities of pracaxi nuts cake PLE extracts were estimated according to the fluorescent enzyme kinetic method described by Sanchez-Martinez et al.. […] Finally, the LOX inhibitory activity of pracaxi nuts cake PLE extracts was determined as described in [26], with slight modifications.

[2] = RNS scavenging capacity, nitric oxide (NO) radical scavenging assay; assay type: biochemical; details: optimized PLE extracts and reference standard (Table 2)
Procedure: as §1

SMILES: O=C1O[C@H]([C@@H](O)CO)C(O)=C1O [Ascorbic acid, ascorbic acid]
- ROS (IC50) [1]: 3.2 ± 0.2 µg/mL
- RNS (IC50) [2]: 1120 ± 16 µg/mL
